Results as given in PMC6199309, “A therapeutic approach to pantothenate kinase associated neurodegeneration” (Nature Communications, 2018).
Values after ≈ are worked out from the molar mass of the structure shown. “Also recorded” adds a separate entry of the source.

Tests used:
[1] = biological target: T1, S6K1 (Homo sapiens, UniProt P23443); test: KINOMEscan; type: binding; conditions: read-out: %Ctrl @ 10000nM
T1 construct: purchased DiscoverX KINOMEscan

[2] = biological target: T2, SNARK (Homo sapiens, UniProt Q9H093); test: KINOMEscan; type: binding; conditions: read-out: %Ctrl @ 10000nM
T2 construct: purchased DiscoverX KINOMEscan
T2 sequence (Q9H093 whole entry): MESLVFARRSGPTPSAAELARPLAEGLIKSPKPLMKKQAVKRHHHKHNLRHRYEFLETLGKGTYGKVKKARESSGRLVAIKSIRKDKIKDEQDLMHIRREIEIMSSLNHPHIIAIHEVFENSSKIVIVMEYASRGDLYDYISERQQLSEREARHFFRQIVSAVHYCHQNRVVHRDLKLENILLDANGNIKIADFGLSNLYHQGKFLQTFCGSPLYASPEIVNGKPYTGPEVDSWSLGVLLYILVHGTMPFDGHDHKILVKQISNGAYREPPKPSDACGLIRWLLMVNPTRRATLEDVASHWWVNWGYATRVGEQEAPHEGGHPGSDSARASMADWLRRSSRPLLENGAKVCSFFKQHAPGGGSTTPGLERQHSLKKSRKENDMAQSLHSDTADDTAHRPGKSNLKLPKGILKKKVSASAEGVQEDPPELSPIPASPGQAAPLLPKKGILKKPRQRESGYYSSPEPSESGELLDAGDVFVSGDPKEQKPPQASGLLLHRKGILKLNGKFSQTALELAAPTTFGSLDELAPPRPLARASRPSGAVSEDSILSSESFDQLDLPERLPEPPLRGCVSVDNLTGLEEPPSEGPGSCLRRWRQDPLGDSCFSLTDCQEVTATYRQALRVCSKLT

[3] = biological target: T3, PIM2 (Homo sapiens, UniProt Q9P1W9); test: KINOMEscan; type: binding; conditions: read-out: %Ctrl @ 10000nM
T3 construct: purchased DiscoverX KINOMEscan

[4] = biological target: T4, PRKCD (Homo sapiens, UniProt Q05655); test: KINOMEscan; type: binding; conditions: read-out: %Ctrl @ 10000nM
T4 construct: purchased DiscoverX KINOMEscan
T4 sequence (Q05655 whole entry): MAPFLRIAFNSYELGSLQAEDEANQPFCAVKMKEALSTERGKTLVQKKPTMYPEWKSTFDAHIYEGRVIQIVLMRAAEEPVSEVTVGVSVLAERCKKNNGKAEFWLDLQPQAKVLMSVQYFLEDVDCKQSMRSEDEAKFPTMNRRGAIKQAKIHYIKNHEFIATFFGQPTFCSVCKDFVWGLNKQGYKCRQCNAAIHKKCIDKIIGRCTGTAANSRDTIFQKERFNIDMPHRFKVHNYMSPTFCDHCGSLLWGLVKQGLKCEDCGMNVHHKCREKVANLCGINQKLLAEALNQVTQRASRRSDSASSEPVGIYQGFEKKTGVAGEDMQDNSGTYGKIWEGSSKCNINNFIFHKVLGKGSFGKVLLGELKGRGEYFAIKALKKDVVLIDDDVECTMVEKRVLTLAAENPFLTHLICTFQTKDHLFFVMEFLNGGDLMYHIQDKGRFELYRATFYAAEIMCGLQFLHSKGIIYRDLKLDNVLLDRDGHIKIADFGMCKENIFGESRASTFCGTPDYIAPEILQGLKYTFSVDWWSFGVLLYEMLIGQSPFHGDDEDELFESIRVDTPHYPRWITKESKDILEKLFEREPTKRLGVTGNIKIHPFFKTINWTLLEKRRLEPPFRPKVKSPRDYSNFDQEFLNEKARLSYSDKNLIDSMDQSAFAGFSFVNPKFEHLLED

[5] = biological target: T5, FES (Homo sapiens, UniProt P07332); test: KINOMEscan; type: binding; conditions: read-out: %Ctrl @ 10000nM
T5 construct: purchased DiscoverX KINOMEscan

[6] = biological target: T6, FLT3(N841I) (Homo sapiens, UniProt P36888, N841I); test: KINOMEscan; type: binding; conditions: read-out: %Ctrl @ 10000nM
T6 construct: purchased DiscoverX KINOMEscan

[7] = biological target: T7, NEK10 (Homo sapiens, UniProt Q6ZWH5); test: KINOMEscan; type: binding; conditions: read-out: %Ctrl @ 10000nM
T7 construct: purchased DiscoverX KINOMEscan
T7 sequence (Q6ZWH5 whole entry): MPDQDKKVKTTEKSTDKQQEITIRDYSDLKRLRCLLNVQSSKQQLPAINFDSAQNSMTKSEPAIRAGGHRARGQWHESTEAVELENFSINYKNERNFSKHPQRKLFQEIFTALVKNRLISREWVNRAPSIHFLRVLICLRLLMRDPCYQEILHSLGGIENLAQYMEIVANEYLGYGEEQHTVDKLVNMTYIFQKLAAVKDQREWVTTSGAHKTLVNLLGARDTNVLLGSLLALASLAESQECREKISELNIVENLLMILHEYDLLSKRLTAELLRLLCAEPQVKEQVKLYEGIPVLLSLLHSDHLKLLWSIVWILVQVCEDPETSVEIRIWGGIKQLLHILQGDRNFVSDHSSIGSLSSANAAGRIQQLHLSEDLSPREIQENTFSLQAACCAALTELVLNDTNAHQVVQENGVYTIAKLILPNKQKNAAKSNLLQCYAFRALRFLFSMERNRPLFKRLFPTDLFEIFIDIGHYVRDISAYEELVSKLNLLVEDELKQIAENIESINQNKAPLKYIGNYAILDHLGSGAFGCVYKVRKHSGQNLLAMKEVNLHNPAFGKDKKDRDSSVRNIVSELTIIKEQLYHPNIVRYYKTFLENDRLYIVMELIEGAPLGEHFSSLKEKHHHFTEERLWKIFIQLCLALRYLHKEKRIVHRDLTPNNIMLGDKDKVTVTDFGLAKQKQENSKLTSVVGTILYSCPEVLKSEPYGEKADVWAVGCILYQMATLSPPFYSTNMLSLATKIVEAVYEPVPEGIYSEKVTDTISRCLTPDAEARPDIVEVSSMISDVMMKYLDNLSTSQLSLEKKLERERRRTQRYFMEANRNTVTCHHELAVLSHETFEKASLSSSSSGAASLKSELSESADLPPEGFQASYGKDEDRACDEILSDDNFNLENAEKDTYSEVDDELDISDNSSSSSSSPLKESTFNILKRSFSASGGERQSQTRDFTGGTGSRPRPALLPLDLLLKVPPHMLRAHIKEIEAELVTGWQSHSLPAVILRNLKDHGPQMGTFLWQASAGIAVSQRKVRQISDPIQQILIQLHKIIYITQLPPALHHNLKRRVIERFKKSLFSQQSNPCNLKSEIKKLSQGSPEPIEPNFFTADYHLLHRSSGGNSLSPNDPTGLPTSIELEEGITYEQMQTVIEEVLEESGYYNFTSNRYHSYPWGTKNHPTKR

[8] = tested on: 468 human kinases; test: KINOMEscan scanMAX panel; type: binding
[9] = biological target: T8, PIK3CA(Q546K) (Homo sapiens, UniProt P42336, Q546K); test: KINOMEscan; type: binding; conditions: read-out: %Ctrl @ 10000nM
T8 construct: purchased DiscoverX KINOMEscan

[10] = biological target: T9, LATS2 (Homo sapiens, UniProt Q9NRM7); test: KINOMEscan; type: binding; conditions: read-out: %Ctrl @ 10000nM
T9 construct: purchased DiscoverX KINOMEscan

[11] = biological target: T10, ERK1 (Homo sapiens, UniProt P27361); test: KINOMEscan; type: binding; conditions: read-out: %Ctrl @ 10000nM
T10 construct: purchased DiscoverX KINOMEscan

[12] = biological target: T11, ACVR1 (Homo sapiens, UniProt Q04771); test: KINOMEscan; type: binding; conditions: read-out: %Ctrl @ 10000nM
T11 construct: purchased DiscoverX KINOMEscan
T11 sequence (Q04771 21-509): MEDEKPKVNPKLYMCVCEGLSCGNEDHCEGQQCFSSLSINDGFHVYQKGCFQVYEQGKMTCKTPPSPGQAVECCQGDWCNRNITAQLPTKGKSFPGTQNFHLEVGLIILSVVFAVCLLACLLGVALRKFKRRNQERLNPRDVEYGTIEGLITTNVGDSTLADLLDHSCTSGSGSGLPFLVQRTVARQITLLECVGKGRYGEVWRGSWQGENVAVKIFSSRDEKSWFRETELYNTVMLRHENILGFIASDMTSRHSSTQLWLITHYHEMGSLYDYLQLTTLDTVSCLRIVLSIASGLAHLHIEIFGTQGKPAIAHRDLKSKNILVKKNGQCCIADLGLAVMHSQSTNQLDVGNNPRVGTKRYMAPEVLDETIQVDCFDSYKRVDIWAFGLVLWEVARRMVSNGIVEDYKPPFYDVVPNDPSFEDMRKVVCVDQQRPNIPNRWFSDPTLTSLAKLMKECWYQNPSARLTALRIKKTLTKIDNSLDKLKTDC

[13] = biological target: T12, JAK1(JH1domain-catalytic) (Homo sapiens, UniProt P23458); test: KINOMEscan; type: binding; conditions: read-out: %Ctrl @ 10000nM
T12 construct: JAK1(JH1domain-catalytic); purchased DiscoverX KINOMEscan

[14] = biological target: T13, ERK2 (Homo sapiens, UniProt P28482); test: KINOMEscan; type: binding; conditions: read-out: %Ctrl @ 10000nM
T13 construct: purchased DiscoverX KINOMEscan

[15] = Solubility at pH 7.4
[16] = biological target: T14, DRAK2 (Homo sapiens, UniProt O94768); test: KINOMEscan; type: binding; conditions: read-out: %Ctrl @ 10000nM
T14 construct: purchased DiscoverX KINOMEscan
T14 sequence (O94768 whole entry): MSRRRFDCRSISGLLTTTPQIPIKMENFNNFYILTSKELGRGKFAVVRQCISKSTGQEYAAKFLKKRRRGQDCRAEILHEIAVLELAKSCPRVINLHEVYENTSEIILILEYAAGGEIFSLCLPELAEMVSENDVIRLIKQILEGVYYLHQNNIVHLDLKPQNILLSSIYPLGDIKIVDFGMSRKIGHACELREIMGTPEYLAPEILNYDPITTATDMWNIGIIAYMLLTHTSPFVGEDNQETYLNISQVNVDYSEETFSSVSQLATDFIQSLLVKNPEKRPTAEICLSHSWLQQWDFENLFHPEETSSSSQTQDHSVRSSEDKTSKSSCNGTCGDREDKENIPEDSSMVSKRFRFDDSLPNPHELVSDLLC

[17] = biological target: T15, CDKL3 (Homo sapiens, UniProt Q8IVW4); test: KINOMEscan; type: binding; conditions: read-out: %Ctrl @ 10000nM
T15 construct: purchased DiscoverX KINOMEscan

[18] = biological target: T16, LIMK1 (Homo sapiens, UniProt P53667); test: KINOMEscan; type: binding; conditions: read-out: %Ctrl @ 10000nM
T16 construct: purchased DiscoverX KINOMEscan

[19] = biological target: T17, MYO3A (Homo sapiens, UniProt Q8NEV4); test: KINOMEscan; type: binding; conditions: read-out: %Ctrl @ 10000nM
T17 construct: purchased DiscoverX KINOMEscan

[20] = tested on: tissue CoA; test: Mouse efficacy testing: tissue CoA levels; type: in vivo
Experimental: C57Bl6/J mice (8-week-old) were purchased from Jackson Laboratory and were fed either a regular diet (autoclavable rodent breeder diet, Labdiet) or an isocaloric, pantothenic acid-supplemented diet (1000 ppm) for 2 weeks prior to the experiment. The mice were maintained at room temperature 72° ± 2 °F, humidity 50 ± 10% and a 14 h light /10 h dark cycle with the dark cycle starting at 18:00 h. Water was supplied ad libitum. The mice were randomized into the treatment arms to achieve a normal weight distribution. […] The mice were euthanized and tissues harvested 4 h after the last dose. The tissue samples were used for total CoA, pantothenate and pantazine determinations. Blood was collected from euthanized animals, plasma or serum was prepared and stored frozen until analysis. Organs, including liver, forebrain, and hindbrain were quickly excised from euthanized animals and immediately flash frozen in liquid N2 or immersed in RNAlater® (Qiagen) overnight prior to freezing. Forebrain and hindbrain regions were identified. Total CoA was determined using 20–50 mg of tissue (liver, forebrain or hindbrain) homogenized in 2 ml of 1 mM KOH. The pH was adjusted to 12.0 with 0.25 M KOH, and incubated at 55 °C for 2 h[23]. The pH of the sample was adjusted to 8.0, and the samples were derivatized with monobromobimane (mBBr) and analyzed by HPLC equipped with a fluorescence detector.

[21] = biological target: T18, SRPK2 (Homo sapiens, UniProt P78362); test: KINOMEscan; type: binding; conditions: read-out: %Ctrl @ 10000nM
T18 construct: purchased DiscoverX KINOMEscan

[22] = biological target: T19, NEK5 (Homo sapiens, UniProt Q6P3R8); test: KINOMEscan; type: binding; conditions: read-out: %Ctrl @ 10000nM
T19 construct: purchased DiscoverX KINOMEscan

[23] = biological target: T20, MERTK (Homo sapiens, UniProt Q12866); test: KINOMEscan; type: binding; conditions: read-out: %Ctrl @ 10000nM
T20 construct: purchased DiscoverX KINOMEscan

[24] = biological target: T21, OSR1 (Homo sapiens, UniProt O95747); test: KINOMEscan; type: binding; conditions: read-out: %Ctrl @ 10000nM
T21 construct: purchased DiscoverX KINOMEscan

[25] = biological target: T22, MEK5 (Homo sapiens, UniProt Q13163); test: KINOMEscan; type: binding; conditions: read-out: %Ctrl @ 10000nM
T22 construct: purchased DiscoverX KINOMEscan

[26] = biological target: T23, KIT (Homo sapiens, UniProt P10721); test: KINOMEscan; type: binding; conditions: read-out: %Ctrl @ 10000nM
T23 construct: purchased DiscoverX KINOMEscan

[27] = biological target: T24, CTK (Homo sapiens, UniProt P42679); test: KINOMEscan; type: binding; conditions: read-out: %Ctrl @ 10000nM
T24 construct: purchased DiscoverX KINOMEscan

[28] = biological target: T25, DAPK3 (Homo sapiens, UniProt O43293); test: KINOMEscan; type: binding; conditions: read-out: %Ctrl @ 10000nM
T25 construct: purchased DiscoverX KINOMEscan

[29] = biological target: T26, FGR (Homo sapiens, UniProt P09769); test: KINOMEscan; type: binding; conditions: read-out: %Ctrl @ 10000nM
T26 construct: purchased DiscoverX KINOMEscan

[30] = biological target: T27, FER (Homo sapiens, UniProt P16591); test: KINOMEscan; type: binding; conditions: read-out: %Ctrl @ 10000nM
T27 construct: purchased DiscoverX KINOMEscan

[31] = biological target: T28, MYLK2 (Homo sapiens, UniProt Q9H1R3); test: KINOMEscan; type: binding; conditions: read-out: %Ctrl @ 10000nM
T28 construct: purchased DiscoverX KINOMEscan

[32] = biological target: T29, DCAMKL3 (Homo sapiens, UniProt Q9C098); test: KINOMEscan; type: binding; conditions: read-out: %Ctrl @ 10000nM
T29 construct: purchased DiscoverX KINOMEscan
T29 sequence (Q9C098 whole entry): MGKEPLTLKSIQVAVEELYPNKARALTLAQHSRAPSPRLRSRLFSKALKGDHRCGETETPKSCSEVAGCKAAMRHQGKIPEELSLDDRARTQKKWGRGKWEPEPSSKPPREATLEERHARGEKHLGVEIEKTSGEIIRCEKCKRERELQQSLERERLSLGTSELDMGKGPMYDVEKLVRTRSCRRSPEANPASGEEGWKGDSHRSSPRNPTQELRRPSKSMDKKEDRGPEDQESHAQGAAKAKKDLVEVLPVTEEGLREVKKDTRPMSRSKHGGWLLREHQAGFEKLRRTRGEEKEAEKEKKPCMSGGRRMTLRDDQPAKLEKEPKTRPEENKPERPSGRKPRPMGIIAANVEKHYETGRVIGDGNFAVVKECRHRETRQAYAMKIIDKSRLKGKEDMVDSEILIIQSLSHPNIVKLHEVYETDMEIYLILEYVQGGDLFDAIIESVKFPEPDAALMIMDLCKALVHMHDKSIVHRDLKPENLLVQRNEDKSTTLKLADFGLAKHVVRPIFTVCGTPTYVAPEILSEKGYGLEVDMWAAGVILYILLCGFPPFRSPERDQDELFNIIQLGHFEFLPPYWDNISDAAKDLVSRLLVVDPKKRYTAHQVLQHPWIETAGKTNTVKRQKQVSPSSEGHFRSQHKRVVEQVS

[33] = biological target: T30, PIK3C2B (Homo sapiens, UniProt O00750); test: KINOMEscan; type: binding; conditions: read-out: %Ctrl @ 10000nM
T30 construct: purchased DiscoverX KINOMEscan

[34] = biological target: T31, EPHA7 (Homo sapiens, UniProt Q15375); test: KINOMEscan; type: binding; conditions: read-out: %Ctrl @ 10000nM
T31 construct: purchased DiscoverX KINOMEscan
T31 sequence (Q15375 28-998): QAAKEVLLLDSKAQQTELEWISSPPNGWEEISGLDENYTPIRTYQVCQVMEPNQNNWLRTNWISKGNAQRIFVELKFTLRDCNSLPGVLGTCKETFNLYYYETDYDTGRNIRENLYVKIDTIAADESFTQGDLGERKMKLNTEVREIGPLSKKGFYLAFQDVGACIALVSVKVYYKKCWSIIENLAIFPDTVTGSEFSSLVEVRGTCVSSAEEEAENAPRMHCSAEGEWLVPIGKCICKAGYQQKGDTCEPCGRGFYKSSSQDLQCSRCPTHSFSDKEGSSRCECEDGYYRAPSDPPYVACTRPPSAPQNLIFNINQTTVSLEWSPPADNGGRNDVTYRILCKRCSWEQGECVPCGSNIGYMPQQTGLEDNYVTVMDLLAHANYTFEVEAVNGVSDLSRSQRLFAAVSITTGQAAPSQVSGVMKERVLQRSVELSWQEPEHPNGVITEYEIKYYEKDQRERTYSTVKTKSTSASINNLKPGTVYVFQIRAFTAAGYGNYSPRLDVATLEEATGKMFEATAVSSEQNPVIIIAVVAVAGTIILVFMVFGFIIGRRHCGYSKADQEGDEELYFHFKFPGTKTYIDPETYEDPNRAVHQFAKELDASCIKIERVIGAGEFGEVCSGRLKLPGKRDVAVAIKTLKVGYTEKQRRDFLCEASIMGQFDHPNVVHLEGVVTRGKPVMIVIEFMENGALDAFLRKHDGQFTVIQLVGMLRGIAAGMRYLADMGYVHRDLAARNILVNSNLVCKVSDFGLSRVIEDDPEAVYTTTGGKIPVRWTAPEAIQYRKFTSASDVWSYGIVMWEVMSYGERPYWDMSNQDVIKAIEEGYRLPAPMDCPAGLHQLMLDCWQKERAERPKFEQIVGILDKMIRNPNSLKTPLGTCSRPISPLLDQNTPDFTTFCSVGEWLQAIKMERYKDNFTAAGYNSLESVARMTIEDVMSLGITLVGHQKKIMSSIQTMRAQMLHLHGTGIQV

[35] = 10000 nM, 403 non-mutant kinases

For `CC(C)c1ccc(CC(=O)N2CCN(c3ccc(C#N)nn3)CC2)cc1` [PZ-2891, 6-(4-(2-(4-isopropylphenyl)acetyl)piperazin-1-yl)pyridazine-3-carbonitrile], the remaining binding at 10 µM [1] was 96%, the remaining binding at 10 µM [2] was 69% and the remaining binding at 10 µM [3] was 96%. It also gave a remaining binding at 10 µM [4] of 89%, a remaining binding at 10 µM [5] of 94% and a remaining binding at 10 µM [6] of 86%. The remaining binding at 10 µM [7] was 89%, the “inhibitory activity in screen of 468 kinases” value ([8]; 10 μM) was “did not exhibit off-target inhibition; also recorded: did not have significant inhibitory activity” and the “Number of Hits S(1)” value [8, 35] was 1. The “Number of Hits S(10)” value [8, 35] was 2, the “Number of Hits S(35)” value [8, 35] was 2 and the remaining binding at 10 µM [9] was 70%. For the same molecule, the remaining binding at 10 µM [10] was 82%, the remaining binding at 10 µM [11] was 91% and the remaining binding at 10 µM [12] was 88%. It also gave a remaining binding at 10 µM [13] of 74%, a remaining binding at 10 µM [14] of 86% and a solubility [15] of 23 µM (≈ 8.04 µg/mL). The remaining binding at 10 µM [16] was 95%, the remaining binding at 10 µM [17] was 86% and the remaining binding at 10 µM [18] was 87%. The remaining binding at 10 µM [19] was 68%, the “increase in total liver CoA” value ([20]; 30 mg/kg PZ-2891 alone, oral gavage, 5 doses at 12 h intervals) was 50% and the “increase in liver CoA levels” value ([20]; 30 mg/kg PZ-2891 plus 200 mg/kg pantothenate, oral gavage, 5 doses at 12 h intervals) was 100%. The “muscle CoA levels” value ([20]; 112 ppm PZ-2891 in chow, 1 week) was “not elevated”, the “CoA levels in tissues, 1 week chow” value ([20]; 112 ppm PZ-2891 in chow, 1000 ppm pantothenate, 1 week) was “elevated in liver, brain, and to a lesser extent, heart” and the “total CoA in liver, forebrain and hindbrain” value ([20]; male and female mice, 5 oral doses every 12 h plus 100 mg/kg pantothenate) was “dose-dependent increase in total CoA”. For the same molecule, the “weights or behavior of treated animals” value ([20]; one-month treatment in diet) was “no difference in the weights or behavior”, the “liver and brain CoA, 4 weeks diet” value ([20]; series of PZ-2891 doses in diet, 1000 ppm pantothenate, 4 weeks) was “significantly elevated” and the remaining binding at 10 µM [21] was 97%. It also gave a remaining binding at 10 µM [22] of 100%, a remaining binding at 10 µM [23] of 95% and a remaining binding at 10 µM [24] of 87%. For the same molecule, the remaining binding at 10 µM [25] was 69%, the remaining binding at 10 µM [26] was 75% and the remaining binding at 10 µM [27] was 77%. The remaining binding at 10 µM [28] was 100%, the remaining binding at 10 µM [29] was 96% and the remaining binding at 10 µM [30] was 88%. The remaining binding at 10 µM [31] was 98%, the remaining binding at 10 µM [32] was 84% and the remaining binding at 10 µM [33] was 100%. For the same molecule, the remaining binding at 10 µM [34] was 92%.
